Results: PubChem BioAssay (NCI)
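1) Cells in 96-well plates. 2) Compound, 48 h, 5 concentrations. 3) Linear interpolation between surrounding doses. 4) Unreached endpoint = highest concentration. The concentration for full growth arrest is given as TGI.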

Legend:
Experiment in all cases: growth of human tumour cells (NCI), 48 h
[1] = test system: SNB-19 CNS
[2] = test system: DU-145 prostate
[3] = test system: 786-0 renal
[4] = test system: RPMI-8226 leukemia
[5] = test system: OVCAR-8 ovarian
[6] = test system: BT-549 breast
[7] = test system: MCF7 breast
[8] = test system: HOP-92 NSCLC
[9] = test system: NCI-H226 lung
[10] = test system: UACC-257 melanoma
[11] = test system: OVCAR-3 ovarian

| SMILES | TGI [1] [µM] | TGI [2] [µM] | TGI [3] [µM] | TGI [4] [µM] | TGI [5] [µM] | TGI [6] [µM] | TGI [7] [µM] | TGI [8] [µM] | TGI [9] [µM] | TGI [10] [µM] | TGI [11] [µM] |
| --- | --- | --- | --- | --- | --- | --- | --- | --- | --- | --- | --- |
| NC1CC(=O)c2sccc21 (stereo unspecified) | > 100 | > 100 | > 100 | > 100 | > 100 | > 100 | > 100 | > 100 | > 100 | > 100 | > 100 |
| Cc1ccc(S(=O)(=O)NC(=O)NC(Cc2ccc(O)c(O)c2)C(=O)O)cc1 (stereo unspecified) | > 100 | > 100 | 34.6 | > 100 | > 100 | > 100 | > 100 | > 100 | > 100 | > 100 | > 100 |
| C=CCCCCCCCCCOC1C=CC(OC(C)=O)C(COC(C)=O)O1 (stereo unspecified) | > 100 | > 100 | > 100 | 84.6 | 43.4 | > 100 | > 100 | > 100 | > 100 | 95.8 | > 100 |
| CC1CCc2sc3[nH]c(=S)n(-c4ccccc4)c(=O)c3c2C1 (stereo unspecified) | > 100 | > 100 | > 100 | > 100 | > 100 | > 100 | > 100 | > 100 | > 100 | > 100 | 85.3 |
| COc1cc2c(cc1OCCCC(=O)Nc1cc(C(=O)NCCCN(C)C)n(C)n1)N=CC1CCCN1C2=O (stereo unspecified) | > 37.4 | > 41.6 | > 23.5 | 17.6 | > 24 | 29.7 | > 80.7 | 13.2 | > 38.2 | 19.2 | 74.2 |
| COc1cc2c(cc1OC)-c1cc3cc(OC)c(OC)cc3c(=O)n1CC2 | > 100 | > 51.5 | > 100 | 47.2 | > 100 | > 100 | > 100 | 10.5 | > 85.9 | > 78.4 | > 100 |
| C#CCn1c(=O)c(Cl)cn(/C(=C/C(=O)OCC)C(=O)OCC)c1=O | > 66.7 | 33 | 3.83 | 5.28 | 12.9 | 35.7 | 22.7 | 22 | > 59.5 | 33.3 | 11.7 |
| c1ccc2nc(CCC3CCCCN3)ccc2c1 (stereo unspecified) | > 100 | > 100 | > 100 | > 100 | > 100 | > 100 | > 100 | > 100 | > 100 | > 100 | – |
| CC12CCC(C(Nc3ccccn3)C1=O)C2(C)C (stereo unspecified) | > 100 | > 100 | > 100 | > 100 | > 100 | > 100 | > 100 | > 100 | > 100 | > 100 | > 100 |
| C=C(C)[C@@H]1CCC2=C[C@H](CC(C)=CC3=CC(C)=C(O3)[C@@H]1OC)OC2=O | > 100 | > 100 | – | > 100 | > 100 | > 100 | > 100 | > 100 | > 100 | > 100 | > 100 |
| O=C1C(NCCN2CCOCC2)=C(Cl)C(=O)c2ncccc21 | 2.75 | 2.17 | 1.6 | 0.377 | 1.9 | 2.57 | 1.14 | 5.76 | 3.64 | – | 5.48 |
| C=C(C(=O)OC)c1cc2ccccc2n1S(=O)(=O)c1ccccc1 | 34 | 8.51 | > 33.5 | 5.43 | 8.42 | 5.12 | 8.11 | 3.34 | 7.22 | 18.7 | 11.4 |
| CCCCCCCCCCCCCCCCCCOCC(COP(=O)([O-])OCC[N+](C)(C)C)OC (stereo unspecified) | 47.1 | > 100 | > 71.7 | 45.7 | 57.7 | > 100 | > 54.3 | 25.4 | 44.7 | 30.5 | 54.5 |
| Clc1nc(Cl)c(CBr)c(Cl)n1 | 33.3 | 30.6 | 5.18 | 4.06 | 10.2 | 4.17 | 26 | 5.07 | > 51.7 | 33.9 | 13.3 |
| O=C1ON=C2C3CC4CC12CC1(C3)C(=O)ON=C41 | > 100 | > 100 | > 100 | > 100 | > 100 | > 100 | > 100 | > 100 | > 100 | > 100 | > 100 |
| CCOC(=O)Cn1c(=O)c2cc(-c3ccccc3)cc3c(Cl)nc4c(OC)c(OC)cc1c4c32 | 55 | > 61 | > 100 | 46.8 | 44.4 | 38.3 | 22.7 | 54.6 | > 100 | 38.9 | 60.1 |
| CCOC(=O)C(C(=O)OCC)=C1NC2(c3ccccc3Nc3ccc(C)cc32)C(C(=O)OC)S1 (stereo unspecified) | > 100 | > 100 | > 100 | > 100 | > 100 | > 100 | > 100 | 44.4 | > 100 | > 100 | > 100 |
| COC(=O)[C@H](Cc1ccccc1)NP(=O)(O)OCC1C=CC(n2cc(C)c(=O)[nH]c2=O)O1 (stereo partly specified) | > 100 | > 100 | > 100 | > 100 | > 100 | > 100 | > 100 | > 100 | > 100 | > 100 | > 100 |
| COC(=O)c1ccccc1C1CN=NC12Cc1cccc(C)c1C2=O (stereo unspecified) | > 100 | > 100 | > 100 | > 100 | > 100 | > 100 | 91.9 | > 100 | > 100 | > 100 | 82.1 |

| SMILES | TGI [1] [µM] | TGI [2] [µM] | TGI [3] [µM] | TGI [4] [µM] | TGI [5] [µM] | TGI [6] [µM] | TGI [7] [µM] | TGI [8] [µM] | TGI [9] [µM] | TGI [10] [µM] | TGI [11] [µM] |
| --- | --- | --- | --- | --- | --- | --- | --- | --- | --- | --- | --- |
| Nc1ccc(Oc2ccc(C34CC5CC6C3CC3CC4C(C5)C6(c4ccc(Oc5ccc(N)c(O)c5)cc4)C3)cc2)cc1O | 14.7 | > 43.5 | 14.9 | 7.94 | > 46.7 | 20.9 | > 42.3 | 8.41 | 14.3 | 34.7 | 8.28 |
| c1ccc(N=C2SC3=NCCN3C2=Nc2ccccc2)cc1 | 32.5 | 28.8 | – | 83.8 | > 100 | 34.7 | 24.9 | 60.6 | 36.3 | – | 36 |
| c1ccc(C(CCN2CC3CCC(CC3)C2)c2ccccc2)cc1 | > 100 | > 100 | 36.1 | 36.7 | 98.3 | > 100 | 29 | 64.4 | 35.6 | 31.9 | 44.3 |
| O=C1c2ccccc2-c2nc(/C=C/c3ccccc3)cc3c2c1nc1ccccc13 | > 100 | > 100 | > 100 | > 100 | > 100 | > 100 | > 100 | > 100 | > 100 | > 100 | 3.95 |
| CC(C)(C)c1ccc(C(C)(C)C)c(N2C(=O)C3ON=C(c4ccc([N+](=O)[O-])cc4)C3C2=O)c1 (stereo unspecified) | > 25 | > 25 | 9.71 | > 25 | > 25 | > 25 | > 25 | > 25 | > 25 | > 25 | > 25 |
| CCc1nc2ccc(C(F)(F)F)cc2[nH]c1=O | > 100 | > 100 | > 100 | > 100 | > 100 | > 100 | > 100 | > 100 | > 100 | > 100 | > 100 |
| O=C(OCCC12CC3CC(CC(C3)C1)C2)c1ccc(NCc2cc(O)ccc2O)cc1 | 3.23 | 13.7 | 4.73 | 0.666 | – | 0.684 | > 100 | 16.8 | 8.62 | 2.38 | 0.626 |
| Cc1ccc(C(=O)Nc2ccc(S(=O)(=O)O)c3cc(S(=O)(=O)O)cc(S(=O)(=O)O)c23)cc1NC(=O)c1cccc(NC(=O)Nc2cccc(C(=O)Nc3cc(C(=O)Nc4ccc(S(=O)(=O)O)c5cc(S(=O)(=O)O)cc(S(=O)(=O)O)c45)ccc3C)c2)c1 (tested in a mixture with another compound) | > 50 | > 50 | > 50 | > 50 | > 50 | > 50 | > 50 | > 50 | > 50 | > 50 | > 50 |
| CCN(CC)CCCOc1cc2c(cc1OC)C(=O)N1CCC[C@H]1C=N2 | > 100 | > 100 | > 100 | 53.8 | > 100 | 76.1 | > 100 | 70.9 | 65.8 | > 100 | 50 |
| NS(=O)(=O)c1nnc(NS(=O)(=O)c2ccccc2C(=O)O)s1 | > 100 | > 100 | > 100 | > 100 | > 100 | > 100 | > 100 | > 100 | > 100 | > 100 | > 100 |
| COC(=O)c1cc(C(=CCC[C@H]2CC[C@@]3(C)C(CCC4C3CC[C@@]3(C)C4CC[C@@H]3C(C)CCCC(C)C)C2)c2cc(Cl)c(OC(=O)c3ccccc3)c(C(=O)OC)c2)cc(Cl)c1OC(=O)c1ccccc1 (stereo partly specified) | > 10 | > 10 | > 10 | > 10 | > 10 | > 10 | > 10 | > 10 | > 10 | > 10 | > 10 |
| Cn1c(=O)c2c(nc(Nc3ccc(Cl)cc3)n3c(=O)n(-c4ccccc4)c(=O)n23)n(C)c1=O | > 100 | > 100 | > 100 | > 100 | > 100 | > 100 | > 100 | > 100 | > 100 | > 100 | > 100 |
| Oc1ccc(O)c(CNc2ccccc2)c1 | 45.1 | 32.2 | 26.1 | 3.14 | 36.4 | 24.3 | 57.7 | 20.8 | 78.4 | 39.4 | 19.3 |
| CC(=O)O[C@H]1C[C@H]2C(=S)Nc3ccccc3C(=S)N2C1 | > 100 | > 100 | > 100 | > 100 | > 100 | > 100 | > 100 | > 100 | > 100 | > 100 | > 100 |
| CCN1CCC(O)(c2ccc(Oc3ccc(C)cc3)cc2)C(C(=O)c2ccc(Oc3ccc(C)cc3)cc2)C1 (stereo unspecified) | 27.2 | 20.1 | 17.2 | 4.26 | 28.2 | 22.4 | 8.41 | 21.7 | 27.9 | 26.7 | 36.9 |
| c1ccc2c(c1)CC1COc3ccccc3C1O2 (stereo unspecified) | – | > 100 | > 100 | > 100 | > 100 | > 100 | > 100 | > 100 | > 100 | > 100 | > 100 |
| c1ccc(-c2cc(-c3cccs3)c(-c3cccs3)o2)cc1 | > 100 | > 100 | > 100 | > 100 | > 100 | > 100 | > 100 | > 100 | > 100 | > 100 | > 100 |
| CC(=O)OCC1=C(C)C[C@H]([C@@H](COC(C)=O)C2CCC3C4C[C@H]5O[C@]56CC=CC(=O)[C@]6(C)C4CC[C@@]32C)OC1=O (stereo partly specified) | 7.72 | 1.41 | 1.58 | 0.181 | 0.714 | 3.65 | 2.09 | 2.87 | 1.74 | 2.99 | 0.553 |
| COc1ccc2cc(C(=O)NCCCNC(=O)c3ccc4cc(OC)ccc4c3)ccc2c1 | 30.6 | > 100 | 57.5 | > 100 | > 66.3 | > 100 | > 100 | 45.2 | > 100 | > 100 | > 100 |
